Data set [1] deals with T1, NudG (Escherichia coli, UniProt P77788).
T1 construct: expressed in transfected cells; host or cells: E. coli ASKA collection strain, IPTG-induced, whole-cell lysate
In words: DRaCALA competition assay, lysate with overproduced NudG. Type of data set: binding, E. coli. The following applies: whole-cell lysate, 2 nM hot (p)ppGpp, 100 µM cold competitor. On the procedure:
(§1) Bacterial cells were collected and frozen at −80°C.

The target of data set [2] is T1, NudG. In words: In vitro cleavage assay (TLC), NudG. Type of data set: biochemical, E. coli. The following applies: 1 µM NudG, 10 nM hot ppGpp, 100 µM competitor, 30°C. On the procedure:
(§2) The purified His6-MutT and His6-NudG proteins were tested for their relative levels of cleavage of ppGpp compared to those seen with their native substrates. For this, a 1 μM concentration of each protein and a 10 nM concentration of [α-^32P]ppGpp were used together with 100 μM concentrations of cold competitors [ppGpp, GTP, ATP, 8-oxo-(d)GTP, 2-hydroxyl-(d)ATP] or 50 mM EDTA in buffer B. The samples were incubated at 30°C for 10 min and for 1 h before the reactions were stopped by adding 50 mM EDTA. The cleavage products were resolved by TLC as described above. The purified His6-NadR and His6-TrmE proteins were tested for their cleavage of both GTP and ppGpp. For cleavage of GTP, 10 μM concentrations of His6-MBP, His6-TrmE, and 20 μM His6-NadR proteins were used with 2 nM [α-^32P]GTP and 100 μM cold GTP in buffer B. For cleavage of ppGpp, 10 μM concentrations of His6-TrmE, His6-MBP, and His6-NadR proteins were used with 10 nM [α-^32P]ppGpp in buffer B. Of note, for His6-TrmE, another reaction was also performed in buffer B supplemented with 100 mM KCl. The reactions were performed at RT for 10 min and were stopped by adding 17% formic acid. The cleavage products were resolved by TLC as described above.
(§3) A 20 μM concentration of each of purified proteins MutT, NudG, NadR, TrmE, and MBP (as a negative control) was incubated with 100 μM ppGpp in buffer B (containing 40 mM Tris [pH 7.5], 100 mM NaCl, and 10 mM MgCl2) for 20 min at room temperature. Samples were snap-frozen on dry ice and analyzed with UPLC-MS afterward. All samples and buffers were stored at −80°C, thawed on ice, and kept at 4°C during analysis. For the analysis, a UPLC-quadrupole time of flight (UPLC-qTOF) method (Waters) was used. Analysis conditions were as follows: column, zic-HILIC (Merck Millipore) (150 by 2.1 mm, […], gradient elution, flow rate set to 0.3 ml/min); mobile phase A, 10 mM ammonium acetate (pH 5); mobile phase B, 90% acetonitrile with 10 mM ammonium acetate (pH 5). The gradient was set up as follows: min 0 to 2, 80% B; min 2 to 16, 80% B to 50% B; hold until min 20; injection volume, 4 µl. The detection conditions were as follows: photodiode array detector (PDA), […] (evaluated at 260 nm); MS, ionization; electrospray ionization (ESI+), scan, 200 to 800 m/z with lock mass correction. Analytes were identified by their accurate mass and retention time data for a known standard dissolved in used buffer (for the chemicals of the same nominal masses). These standards were either synthesized and their structures confirmed by nuclear magnetic resonance (NMR) (for ppGp, pGpp, and pGp) or purchased (ppGpp was purchased from Jena Biocsience and GTP from Sigma-Aldrich).

In data set [3] the target is T2, MutT (Escherichia coli, UniProt P08337). In words: In vitro cleavage assay (TLC), MutT. Type of data set: biochemical, E. coli. Conditions: 1 µM MutT, 10 nM hot ppGpp, 100 µM competitor, 30°C, up to 1 h. On the procedure: as §2, §3
Data set [4] concerns the target T2, MutT. The following applies: whole-cell lysate, 2 nM hot (p)ppGpp, 100 µM cold competitor.
Description: DRaCALA screening was performed essentially as described before ([39]) with minor modifications. Briefly, ASKA collection strains were inoculated into 1.5 ml LB broth with 25 μg/ml chloramphenicol in deep 96-well plates (Greiner) and grown over night at 30°C. IPTG (1 mM) was added the next morning to induce protein expression at 30°C for 6 h. Bacterial cells were collected and frozen at −80°C. To lyse cells, 150 μl buffer B with 2 mM phenylmethylsulfonyl fluoride (PMSF), 40 μg/ml DNase 1, and 0.5 mg/ml lysozyme was used to resuspend cell pellets and then subjected to three freeze-thaw cycles before Benzonase (Sigma) (2.5 U/well) was added to reduce lysate viscosity. A 20-μl volume of lysate was transferred into a 96-well V-bottom plate (Sterilin), incubated at 37°C for 15 min, and placed on ice. […] Membranes were dried for 10 min at RT, and binding signals were exposed to a BAS IP screen (GE Healthcare) and detected by the use of a Typhoon FLA-7000 PhosphorImager.
For competition assays, purified proteins at the specified concentrations were incubated with 2 nM [α-^32P]ppGpp or [α-^32P]pppGpp in the presence of 100 μM competitor nucleotides in binding buffer B. The reaction mixtures were incubated for 5 min at RT, 2 µl was spotted onto nitrocellulose membranes, and the values corresponding to the bound fractions were determined.
Data set [5] deals with T3, YgdH (Escherichia coli, UniProt P0ADR8). Description: DRaCALA competition assay, YgdH. Type of data set: binding, E. coli. The following applies: 50 µM YgdH, 100 µM cold competitor, without or with 1.5 mM magnesium.
Description: (§4) For Kd measurements by DRaCALA, 2-fold serial dilutions from the highest possible concentrations of each purified protein were prepared in binding buffer B, and approximately 2 nM concentrations of α-^32P-labeled ppGpp, pppGpp, GTP, and GDP were added. The mixtures were incubated for 5 min at RT before spotting of 2 µl of the reaction mixtures onto nitrocellulose membranes. […] For competition assays, purified proteins at the specified concentrations were incubated with 2 nM [α-^32P]ppGpp or [α-^32P]pppGpp in the presence of 100 μM competitor nucleotides in binding buffer B. The reaction mixtures were incubated for 5 min at RT, 2 µl was spotted onto nitrocellulose membranes, and the values corresponding to the bound fractions were determined. EDTA was added at excess concentrations as specified for each case.
A further data set concerns the target Der (Escherichia coli, UniProt P0A6P5). In words: DRaCALA Kd determination, purified Der. Type of data set: binding, E. coli. The following applies: 2 nM 32P-labeled ligand, read-out: apparent Kd, Der.
The target of another data set is T4, UshA (Escherichia coli, UniProt P07024).
T4 sequence (P07024 26-550): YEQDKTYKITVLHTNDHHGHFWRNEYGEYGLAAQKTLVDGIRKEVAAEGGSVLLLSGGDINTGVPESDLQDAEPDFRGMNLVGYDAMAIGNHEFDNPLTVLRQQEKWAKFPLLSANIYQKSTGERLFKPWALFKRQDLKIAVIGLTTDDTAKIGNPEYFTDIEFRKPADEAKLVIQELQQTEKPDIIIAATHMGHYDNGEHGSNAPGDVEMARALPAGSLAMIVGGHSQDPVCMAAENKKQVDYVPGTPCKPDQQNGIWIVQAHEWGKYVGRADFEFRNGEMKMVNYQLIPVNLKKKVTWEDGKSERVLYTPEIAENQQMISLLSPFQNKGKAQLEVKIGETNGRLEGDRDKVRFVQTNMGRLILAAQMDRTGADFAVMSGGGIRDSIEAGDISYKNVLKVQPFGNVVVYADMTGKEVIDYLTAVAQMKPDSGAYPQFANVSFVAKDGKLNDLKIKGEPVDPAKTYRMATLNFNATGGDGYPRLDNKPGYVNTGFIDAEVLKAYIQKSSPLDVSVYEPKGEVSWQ
Description: DRaCALA competition assay, lysate with overexpressed UshA. Type of data set: binding. The following applies: cell lysate, 2 nM hot (p)ppGpp, 100 µM cold competitor. On the procedure: as §1

Data set [6] has as its target T5, TrmE (Escherichia coli, UniProt P25522). In words: In vitro cleavage assay (TLC), TrmE. Type of data set: biochemical, E. coli. The following applies: 10 µM TrmE, buffer B, with 100 mM potassium where stated, 10 min. On the procedure: as §2
A 20 μM concentration of each of purified proteins MutT, NudG, NadR, TrmE, and MBP (as a negative control) was incubated with 100 μM ppGpp in buffer B (containing 40 mM Tris [pH 7.5], 100 mM NaCl, and 10 mM MgCl2) for 20 min at room temperature. Samples were snap-frozen on dry ice and analyzed with UPLC-MS afterward. All samples and buffers were stored at −80°C, thawed on ice, and kept at 4°C during analysis. For the analysis, a UPLC-quadrupole time of flight (UPLC-qTOF) method (Waters) was used. […] The detection conditions were as follows: photodiode array detector (PDA), […] (evaluated at 260 nm); MS, ionization; electrospray ionization (ESI+), scan, 200 to 800 m/z with lock mass correction. […]

A further data set deals with SaDer (Staphylococcus aureus, UniProt A6QH24). In words: DRaCALA Kd determination, SaDer. Type of data set: binding, S. aureus.
In data set [7] the target is T3, YgdH. Description: DRaCALA binding and Kd determination, purified YgdH. On the set-up: species or system E. coli. Conditions: DRaCALA, in the presence of EDTA (without Mg2+); read-out: Kd, YgdH + EDTA (converted).
Description: as §4
Data set [8] addresses T5, TrmE. In words: DRaCALA Kd determination, purified TrmE. The following applies: in the presence of magnesium, read-out: apparent Kd, TrmE. Type of data set: binding, E. coli.
Description: as §4
A further data set addresses RF3 (PrfC) (Escherichia coli, UniProt P0A7I4). In words: DRaCALA Kd determination, purified RF3. Type of data set: binding, E. coli. Conditions: 2 nM 32P-labeled ligand, read-out: apparent Kd, RF3 (PrfC).
A further data set has as its target HypB (Escherichia coli, UniProt P0AAN3). Description: DRaCALA Kd determination, purified HypB. Type of data set: binding, E. coli. The following applies: 2 nM 32P-labeled ligand, read-out: apparent Kd, HypB.
Another data set has as its target Hpt (Escherichia coli, UniProt P0A9M2). In words: DRaCALA competition assay, Hpt. The class given is binding, E. coli. The following applies: 20 µM Hpt, 2 nM hot ppGpp, 100 µM cold competitor.
Data set [9] concerns the molecule itself. In words: SEC; size exclusion FPLC profile of purified His6-YgdH (53 kDa) compared with protein standards. A general note: Size exclusion chromatography separates by hydrodynamic size, large species first.

T2 sequence (P08337 whole entry): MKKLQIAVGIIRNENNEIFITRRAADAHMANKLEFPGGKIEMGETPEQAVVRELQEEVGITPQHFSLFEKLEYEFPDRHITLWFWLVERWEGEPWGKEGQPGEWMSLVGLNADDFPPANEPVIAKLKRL
T1 sequence (P77788 whole entry): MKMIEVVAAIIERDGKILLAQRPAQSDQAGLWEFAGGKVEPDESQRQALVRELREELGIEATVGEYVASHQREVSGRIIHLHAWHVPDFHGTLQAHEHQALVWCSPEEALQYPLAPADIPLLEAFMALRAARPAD
Sequence of Der (P0A6P5 whole entry): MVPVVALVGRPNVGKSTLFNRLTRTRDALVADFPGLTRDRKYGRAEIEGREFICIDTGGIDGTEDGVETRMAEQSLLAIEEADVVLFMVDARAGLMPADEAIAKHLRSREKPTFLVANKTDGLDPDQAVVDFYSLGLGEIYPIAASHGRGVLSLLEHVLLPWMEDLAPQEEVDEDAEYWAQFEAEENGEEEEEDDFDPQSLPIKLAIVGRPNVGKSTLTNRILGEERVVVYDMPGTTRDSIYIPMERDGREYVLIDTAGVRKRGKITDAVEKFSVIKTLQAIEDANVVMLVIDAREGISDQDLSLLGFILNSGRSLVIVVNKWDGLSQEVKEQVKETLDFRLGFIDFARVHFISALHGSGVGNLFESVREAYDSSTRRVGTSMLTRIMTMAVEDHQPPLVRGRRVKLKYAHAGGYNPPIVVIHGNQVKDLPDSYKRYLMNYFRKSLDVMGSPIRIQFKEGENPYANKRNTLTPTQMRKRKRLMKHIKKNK
T5 sequence (P25522 whole entry): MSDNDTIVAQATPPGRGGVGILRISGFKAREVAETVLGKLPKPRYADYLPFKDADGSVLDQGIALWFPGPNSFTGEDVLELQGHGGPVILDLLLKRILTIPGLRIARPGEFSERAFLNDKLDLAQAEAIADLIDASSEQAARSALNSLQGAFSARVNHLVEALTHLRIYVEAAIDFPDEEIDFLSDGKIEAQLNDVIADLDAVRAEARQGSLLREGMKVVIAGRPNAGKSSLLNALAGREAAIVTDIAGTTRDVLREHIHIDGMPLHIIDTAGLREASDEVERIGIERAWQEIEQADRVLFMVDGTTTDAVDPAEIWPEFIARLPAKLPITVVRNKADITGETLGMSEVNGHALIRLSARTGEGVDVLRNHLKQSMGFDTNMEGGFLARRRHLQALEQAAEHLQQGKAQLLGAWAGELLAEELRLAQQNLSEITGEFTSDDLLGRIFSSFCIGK
Sequence of HypB (P0AAN3 whole entry): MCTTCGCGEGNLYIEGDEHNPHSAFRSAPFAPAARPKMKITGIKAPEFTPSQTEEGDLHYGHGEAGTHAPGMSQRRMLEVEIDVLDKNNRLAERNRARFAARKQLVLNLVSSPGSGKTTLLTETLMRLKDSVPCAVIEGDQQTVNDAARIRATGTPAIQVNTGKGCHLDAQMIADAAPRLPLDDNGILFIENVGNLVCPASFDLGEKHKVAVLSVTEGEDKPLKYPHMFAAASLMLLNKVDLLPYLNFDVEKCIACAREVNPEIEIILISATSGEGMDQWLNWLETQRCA
Sequence of Hpt (P0A9M2 whole entry): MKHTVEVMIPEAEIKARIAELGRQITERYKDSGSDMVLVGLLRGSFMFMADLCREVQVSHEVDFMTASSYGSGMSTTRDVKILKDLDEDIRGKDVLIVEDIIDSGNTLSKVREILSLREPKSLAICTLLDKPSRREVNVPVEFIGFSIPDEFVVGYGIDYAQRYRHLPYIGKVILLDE
Sequence of RF3 (PrfC) (P0A7I4 whole entry): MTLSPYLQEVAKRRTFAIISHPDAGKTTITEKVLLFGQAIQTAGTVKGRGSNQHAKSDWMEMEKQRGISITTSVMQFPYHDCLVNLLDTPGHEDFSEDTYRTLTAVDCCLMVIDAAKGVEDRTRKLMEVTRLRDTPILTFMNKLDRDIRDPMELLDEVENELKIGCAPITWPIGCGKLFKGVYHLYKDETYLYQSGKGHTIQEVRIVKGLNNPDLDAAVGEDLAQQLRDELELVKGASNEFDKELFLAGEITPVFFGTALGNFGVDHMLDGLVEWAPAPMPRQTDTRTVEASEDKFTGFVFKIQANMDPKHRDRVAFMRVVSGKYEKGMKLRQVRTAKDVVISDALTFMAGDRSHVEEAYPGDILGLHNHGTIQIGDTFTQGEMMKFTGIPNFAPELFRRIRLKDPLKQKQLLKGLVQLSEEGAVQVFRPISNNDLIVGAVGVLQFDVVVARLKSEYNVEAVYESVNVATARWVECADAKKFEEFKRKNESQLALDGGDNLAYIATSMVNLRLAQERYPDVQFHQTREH
Sequence of SaDer (A6QH24 whole entry): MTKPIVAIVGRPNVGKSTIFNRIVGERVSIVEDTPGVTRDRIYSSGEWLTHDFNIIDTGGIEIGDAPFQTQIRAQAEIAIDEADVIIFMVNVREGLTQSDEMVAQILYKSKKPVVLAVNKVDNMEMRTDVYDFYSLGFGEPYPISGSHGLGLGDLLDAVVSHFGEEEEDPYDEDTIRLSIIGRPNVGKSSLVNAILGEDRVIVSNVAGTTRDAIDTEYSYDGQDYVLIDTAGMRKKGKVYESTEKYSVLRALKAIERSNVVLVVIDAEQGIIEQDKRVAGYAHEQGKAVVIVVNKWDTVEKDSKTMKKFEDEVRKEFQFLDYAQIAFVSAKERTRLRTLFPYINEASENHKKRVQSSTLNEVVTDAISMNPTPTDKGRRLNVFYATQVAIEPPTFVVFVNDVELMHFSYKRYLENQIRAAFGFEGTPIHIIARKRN
Description for Hpt: For Kd measurements by DRaCALA, 2-fold serial dilutions from the highest possible concentrations of each purified protein were prepared in binding buffer B, and approximately 2 nM concentrations of α-^32P-labeled ppGpp, pppGpp, GTP, and GDP were added. The mixtures were incubated for 5 min at RT before spotting of 2 µl of the reaction mixtures onto nitrocellulose membranes. The fractions of bound ligand and the apparent Kd values were calculated as previously described ([37]). For competition assays, purified proteins at the specified concentrations were incubated with 2 nM [α-^32P]ppGpp or [α-^32P]pppGpp in the presence of 100 μM competitor nucleotides in binding buffer B. The reaction mixtures were incubated for 5 min at RT, 2 µl was spotted onto nitrocellulose membranes, and the values corresponding to the bound fractions were determined. EDTA was added at excess concentrations as specified for each case.
Description for HypB: as §4
Description for RF3 (PrfC): (§5) For Kd measurements by DRaCALA, 2-fold serial dilutions from the highest possible concentrations of each purified protein were prepared in binding buffer B, and approximately 2 nM concentrations of α-^32P-labeled ppGpp, pppGpp, GTP, and GDP were added. The mixtures were incubated for 5 min at RT before spotting of 2 µl of the reaction mixtures onto nitrocellulose membranes. The fractions of bound ligand and the apparent Kd values were calculated as previously described ([37]).
Description for SaDer: as §5

With 2-OH-(d)ATP, the “competition for NudG-bound (p)ppGpp” value on NudG [1] is recorded as “comparable to unlabeled ppGpp”. Besides, the “inhibition of [α-32P]ppGpp cleavage by NudG” value on NudG [2] is given as “slightly better than ppGpp”.

On to 8-oxo-(d)GTP, for which, at MutT [3], the “inhibition of [α-32P]ppGpp cleavage by MutT” value was “totally inhibited”. In addition, at MutT [4], the “competition for MutT-bound (p)ppGpp” value is “completely outcompete”.

Take `Nc1ncnc2c1ncn2[C@@H]1O[C@H](COP(=O)(O)O)[C@@H](O)[C@H]1O` [AMP]: at YgdH [5], the “competition for [α-32P]ppGpp binding to YgdH by YgdH substrates” value is listed as “none of them could outcompete ppGpp”.

As for `Nc1ncnc2c1ncn2[C@@H]1O[C@H](COP(=O)(O)OP(=O)(O)OP(=O)(O)O)[C@@H](O)[C@H]1O` [ATP], the “competition for NudG-bound (p)ppGpp” value on NudG [1] is given as “did not compete”.

Consider `Nc1nc2c(ncn2[C@@H]2O[C@H](COP(=O)(O)OP(=O)(O)O)[C@@H](O)[C@H]2O)c(=O)[nH]1` [GDP], for which the “competition for NudG-bound (p)ppGpp” value at NudG [1] is “but not the structurally very similar GTP and GDP”. The Kd at Der was 1.3 ± 0.1 µM. Also, the “competition for UshA-bound (p)ppGpp” value at UshA is “but not the structurally very similar GTP and GDP”.

Take `Nc1nc2c(ncn2[C@@H]2O[C@H](COP(=O)(O)O)[C@@H](O)[C@H]2O)c(=O)[nH]1` [GMP]: the “competition for [α-32P]ppGpp binding to YgdH by YgdH substrates” value on YgdH [5] is “none of them could outcompete ppGpp”.

For the molecule `Nc1nc2c(ncn2[C@@H]2O[C@H](COP(=O)(O)OP(=O)(O)OP(=O)(O)O)[C@@H](O)[C@H]2O)c(=O)[nH]1` [GTP], the “cleavage by TrmE” value at TrmE [6] is given as “converted almost all GTP”. The Kd at SaDer was 3.5 ± 0.8 µM; at YgdH [7], 21.4 ± 11.5 µM; at TrmE [8], 4.6 ± 1.1 µM; at Der it was 13.7 ± 7.1 µM; at RF3 (PrfC), 29.3 ± 9.8 µM; at HypB it was 9 ± 1.8 µM. Besides, on NudG [1], the “competition for NudG-bound (p)ppGpp” value was “but not the structurally very similar GTP and GDP”. Moreover, the “competition for UshA-bound (p)ppGpp” value on UshA was “but not the structurally very similar GTP and GDP”. The “inhibition of [α-32P]ppGpp cleavage by MutT” value at MutT [3] was “very limited inhibitory effects”.

Take `O=P(O)(O)OC[C@H]1OC(OP(=O)(O)OP(=O)(O)O)[C@H](O)[C@@H]1O` (stereo partly shown) [PRPP, phosphoribosyl pyrophosphate]: the “competition for bound [α-32P]ppGpp on Hpt” value on Hpt is “partially outcompete”.

B1: YgdH (ECK2790), His6-YgdH (enzyme, E. coli K-12, UniProt P0ADR8 1-454, looked up)
chain: MITHISPLGSMDMLSQLEVDMLKRTASSDLYQLFRNCSLAVLNSGSLTDNSKELLSRFENFDINVLRRERGVKLELINPPEEAFVDGRIIRALQANLFAVLRDILFVYGQIHNTVRFPNLNLDNSVHITNLVFSILRNARALHVGEAPNMVVCWGGHSINENEYLYARRVGNQLGLRELNICTGCGPGAMEAPMKGAAVGHAQQRYKDSRFIGMTEPSIIAAEPPNPLVNELIIMPDIEKRLEAFVRIAHGIIIFPGGVGTAEELLYLLGILMNPANKDQVLPLILTGPKESADYFRVLDEFVVHTLGENARRHYRIIIDDAAEVARQMKKSMPLVKENRRDTGDAYSFNWSMRIAPDLQMPFEPSHENMANLKLYPDQPVEVLAADLRRAFSGIVAGNVKEVGIRAIEEFGPYKINGDKEIMRRMDDLLQGFVAQHRMKLPGSAYIPCYEICT
notes: YgdH (ECK2790), nucleotide nucleosidase of E. coli K-12, expressed from the ASKA plasmid library (pCA24N vector); The ASKA clone carries the gene of E. coli K-12; The printed size of His6-YgdH is 53 kDa; source: E. coli ASKA collection AG1 strain, purified (Ni-NTA, size exclusion chromatography); not shown: His6, N-terminal, kept
One may read the stoichiometry N as the number of molecules, sites or subunits per partner or assembly. On to B1, for which, in data set [9], the “stoichiometry N” value stood at 4.

(Values after article PMC5845004, “Novel (p)ppGpp Binding and Metabolizing Proteins of Escherichia coli” (mBio, 2018).)
